Results reported in patent US11179348B2, “Combination comprising pterostilbene for the treatment of cancer” (FUNDACIÓN UNIVERSIDAD CATÓLICA DE VALENCIA SAN VICENTE …, priority 2015, dated 2021).
Read-outs that look alike come from different tables or passages of the source. Marks after values point to notes of the source that are not given here.

Legend:
MeWo melanoma cell line = experiment: Effect of anti-melanoma chemotherapy on viability (IC50) of in vitro growing MeWo; type: cell-based, human
Method: (§1) Human A2058, MeWo and MelJuso melanoma cells, and mouse AtT-20 pituitary corticotroph tumor cells were from the American Type Culture Collection (ATCC). Human HEMa-LP epidermal melanocytes were from Life Technologies (Grand Island, N.Y.). […] Cells were grown in Dulbecco's modified Eagle's medium (DMEM) (Invitrogen, San Diego, Calif.), pH 7.4, supplemented with 10% heat-inactivated FCS (Biochrom KG, Berlin, Germany), 100 units/ml penicillin and 100 μg/ml streptomycin. Cells were plated, at a density of 20,000 cells/cm2, and cultured at 37° C. in a humidified atmosphere with 5% CO2. […] Cell numbers were determined using a Coulter Counter (Coulter Electronic Inc., Miami, Fla.). Cells were allowed to attach for 12 h before any treatment addition.

[1] = tested on: MelJuso melanoma cell line; experiment: Effect of anti-melanoma chemotherapy on viability (IC50) of in vitro growing MelJuso; type: cell-based, human
Method: as §1

A2058 melanoma cell line = experiment: Effect of anti-melanoma chemotherapy on viability (IC50) of in vitro growing A2058; type: cell-based, human
Method: as §1

[2] = tested on: AtT-20 pituitary corticotroph tumor cells; experiment: ACTH production and POMC expression in AtT-20 cells; type: cell-based, mouse; conditions: results not shown
Method: FIG. 3. Pterostilbene bioavailability in brain and the pituitary gland, and its effect on ACTH synthesis and POMC expression in AtT-20 cells. […] (B) Effect of pterostilbene on ACTH production by AtT-20 cells in a 24 h-period (measured between 24-48 h or between 48-72 h). […] After the 30 min period, culture flasks were washed out (three times with PBS) and the medium was renewed (controls received identical treatment).
(§2) Plasma levels of ACTH (Calbiotech, Inc., Spring Valley, Calif.), corticosterone (Kamiyama Biomedical Co., Seattle, Wash.), and NORA (IBL, Hamburg, Germany) were quantified by ELISA according to the instructions of the suppliers.
RT-PCR and detection of mRNA was performed as described above. For Western blotting (see also above) POMC mouse monoclonal antibody (clone 2B2) from Origen (Rockville, Md.) were used.

[3] = tested on: A2058 cells isolated from tumor-bearing mice; experiment: Chemosensitization of cultured A2058 cells isolated from xenografts; type: cell-based, human; conditions: isolated A2058 cells without in vivo Pter treatment
Method: FIG. 5. Chemosensitization effect of GSH depletion (A) or sod1-AS (B) in melanoma cells isolated from Pter-treated mice. Melanoma cells were cultured as in FIG. 1C. PAC.PBP (100 ng/ml) was added to the culture flasks 24 h after seeding. […] Data are mean values±SD for 5-6 different experiments (*p<0.01, comparing all experimental conditions vs controls).
FIGS. 18-25. Effect of piperlongumine and I-BET762, as GSH depleting and chemosensitizing agents, in in vitro growing human melanoma, pancreatic, breast, lung, liver, prostate, ovarian, and colorectal cancer cells. Cancer cells, isolated from Pter-treated tumor-bearing mice, were cultured as indicated under Methods. Chemotherapy (0.25 μM PAC.PBP in A2058 melanoma and MDA-MB-231 breast carcinoma cells; 0.125 μM PAC.PBP and 25 μM GTB in AsPC-1 pancreatic cancer cells; 1 μM VRB and 15 μM cisPt in A459 lung carcinoma cells; 0.15 μM DXR in HepG2 hepatocellular carcinoma cells; 15 nM DCT in PC-3 prostate carcinoma cells; 0.15 μM PAC.PBP and 25 μM CarboPt in SK-OV-3 ovarian carcinoma cells; 3 μM 5-FU, 1 μM FA and 0.6 μM IRI in HT-29 colorectal carcinoma cells) was added to the cultured flasks 24 h after seeding. PL (1 μM in A2058 and AsPC-1 cells; 0.5 μM in A549 and HT-29 cells; 0.2 μM in HepG2, PC-3, and SK-OV-3 cells; 0.1 μM in MDA-MB-231 cells) or I-BET762 (0.5 μM in HT-29 cells; 0.2 μM in A2058, AsPC-1, HepG2, PC-3, and SK-OV-3 cells; 0.1 μM in A549 and MDA-MB-231 cells) were added 6 h later. Data are mean values±SD for 4-5 different experiments per cell line (*p<0.05 and **p<0.01, comparing all experimental conditions versus control. PL, piperlongumine; PAC.PBP, paclitaxel protein-bound particles; GTB, gemcitabine; DXR, doxorubicin; VRB, vinorelbin; CisPt, cisplatin; docetaxel, DCT; CarboPt, carboplatin; 5-FU, 5-fluoracil; FA, folinic acid; IRI, irinotecan; 5-FU+FA+IRI=FOLFIRI).
Human A2058, MeWo and MelJuso melanoma cells, and mouse AtT-20 pituitary corticotroph tumor cells were from the American Type Culture Collection (ATCC). Human HEMa-LP epidermal melanocytes were from Life Technologies (Grand Island, N.Y.). Human MDA-MB-231 (triple negative: ER−, PR−, HER2−) and MCF-7 (ER+, PR+, HER2−) breast adenocarcinoma, A549 lung adenocarcinoma (NSCLC), HepG2 hepatocellular carcinoma, LNCaP (AR+) and PC-3 (AR−) prostate adenocarcinoma, SK-OV-3 epithelial ovarian carcinoma, and HT-29 and Caco-2 colorectal carcinoma cells were from the American Type Culture Collection. Cells were grown in Dulbecco's modified Eagle's medium (DMEM) (Invitrogen, San Diego, Calif.), pH 7.4, supplemented with 10% heat-inactivated FCS (Biochrom KG, Berlin, Germany), 100 units/ml penicillin and 100 μg/ml streptomycin. Cells were plated, at a density of 20,000 cells/cm2, and cultured at 37° C. in a humidified atmosphere with 5% CO2. Cells were harvested by incubation for 5 min with 0.05% (w/v) trypsin (Sigma, St. Louis, Mo.) in PBS (10 mM sodium phosphate, 4 mM KCl, 137 mM NaCl), pH 7.4, containing 0.3 mM EDTA, followed by the addition of 10% FCS to inactivate the trypsin. Cell numbers were determined using a Coulter Counter (Coulter Electronic Inc., Miami, Fla.). Cells were allowed to attach for 12 h before any treatment addition. Cellular viability was assessed as previously reported (Mena, S. et al. Clin Cancer Res 13, 2658-2666 (2007)), by measuring trypan blue exclusion and leakage of lactate dehydrogenase activity.
Isolation of Tumor Cells from Mouse Xenografts Using Enzymatic Digestion and a double Ficoll gradient. […]

[4] = tested on: glucocorticoid receptors (GR); experiment: GR content of human cancer cells by [3H]-labeled ligand whole-cell binding assay; conditions: A2058-RFP tumors; day 35; EGCG or Curc 50 mg/kg, ± CRC
A2058 melanoma = experiment: In vivo growth of A2058 melanoma xenografts in nu/nu mice; set-up: species or system human; conditions: A2058-RFP; day 35; EGCG or Curc 50 mg/kg i.v. every 48 h, ± CRC
corticosterone = experiment: Plasma corticosterone levels (ELISA) in tumor-bearing mice; type: in vivo; conditions: A2058-bearing mice; day 35; 12 h circadian time; EGCG or Curc 50 mg/kg, ± CRC
Excerpt: (§3) Measurement of ACTH, Corticosterone, and NORA Levels.
as §2

ACTH = experiment: Plasma ACTH levels (ELISA) in tumor-bearing mice; type: in vivo; conditions: A2058-bearing mice; day 35; 6 h circadian time; EGCG or Curc 50 mg/kg, ± CRC
Excerpt: as §3, §2

[5] = for deaths in the treated groups: 50 mg/kg i.v. every 48 h
Method: FIG. 12. Effect of (−)-epigallocatechin-3-gallate (EGCG) or curcumin (Curc) treatment on (A) human melanoma (A2058) and (B) pancreatic cancer (AsPC-1) growth in vivo. EGCG or Curc were administered i.v. every 48 h for a period of 5 weeks, starting 1 week after tumor cell inoculation. For this purpose EGCG was dissolved in physiological saline, whereas Curc was dissolved in DMSO.

Work on `CC(=O)O[C@H]1C(=O)[C@@]2(C)[C@H]([C@H](OC(=O)c3ccccc3)[C@]3(O)C[C@H](OC(=O)[C@H](O)[C@@H](NC(=O)c4ccccc4)c4ccccc4)C(C)=C1C3(C)C)[C@]1(OC(C)=O)CO[C@@H]1C[C@@H]2O` [Paclitaxel, (2α,4α,5β,7β,10β,13α)-4,10-Bis(acetyloxy)-13-{[(2R,3S)-3-(benzoylamino)-2-hydroxy-3-phenylpropanoyl]oxy}-1,7-dihydroxy-9-oxo-5,20-epoxytax-11-en-2-yl benzoate] yielded an IC50 (MeWo melanoma cell line; Homo sapiens) of 11.1 ± 2.15 µM, an IC50 ([1]; Homo sapiens, MEL-JUSO) of 0.13 ± 0.03 µM and an IC50 (A2058 melanoma cell line; Homo sapiens) of 0.35 ± 0.1 µM.

For `CN(Cc1cnc2nc(N)nc(N)c2n1)c1ccc(C(=O)N[C@@H](CCC(=O)O)C(=O)O)cc1` [Methotrexate], the IC50 (MeWo melanoma cell line; Homo sapiens) was > 100 µM, the IC50 ([1]; Homo sapiens, MEL-JUSO) was 1.35 ± 0.34 µM and the IC50 (A2058 melanoma cell line; Homo sapiens) was > 100 µM.

For Arsenate, the IC50 (MeWo melanoma cell line) was 94.4 ± 12.4 µM, the IC50 [1] was 65.5 ± 5.19 µM and the IC50 (A2058 melanoma cell line) was > 100 µM.

`CC[C@]1(O)C[C@@H]2CN(CCc3c([nH]c4ccccc34)[C@@](C(=O)OC)(c3cc4c(cc3OC)N(C)[C@H]3[C@@](O)(C(=O)OC)[C@H](OC(C)=O)[C@]5(CC)C=CCN6CC[C@]43[C@@H]65)C2)C1` [Vinblastine] showed an IC50 (MeWo melanoma cell line; Homo sapiens) of 14.5 ± 2.17 µM, an IC50 ([1]; Homo sapiens, MEL-JUSO) of 0.19 ± 0.04 µM and an IC50 (A2058 melanoma cell line; Homo sapiens) of 7.65 ± 1.35 µM.

For `O=NN(CCCl)C(=O)NCCCl` [BCNU, Carmustine], the IC50 (MeWo melanoma cell line; Homo sapiens) was > 100 µM, the IC50 ([1]; Homo sapiens, MEL-JUSO) was 0.17 ± 0.06 µM and the IC50 (A2058 melanoma cell line; Homo sapiens) was > 100 µM.

In the case of `COc1cc(C=Cc2ccc(OS(=O)(=O)O)cc2)cc(OC)c1` [Pter-S, pterostilbene-4′-sulfate], the “decrease of ACTH production in AtT-20 cells by pterostilbene conjugates” value [2] is reported as “None”.

`CC[C@]1(O)C[C@H]2CN(CCc3c([nH]c4ccccc34)[C@@](C(=O)OC)(c3cc4c(cc3OC)N(C=O)[C@H]3[C@@](O)(C(=O)OC)[C@H](OC(C)=O)[C@]5(CC)C=CCN6CC[C@]43[C@@H]65)C2)C1` [Vincristine] showed an IC50 (MeWo melanoma cell line; Homo sapiens) of 12.5 ± 3.04 µM, an IC50 ([1]; Homo sapiens, MEL-JUSO) of 0.15 ± 0.02 µM and an IC50 (A2058 melanoma cell line; Homo sapiens) of 6.19 ± 2.06 µM.

For Diethylmaleate [DEM], the Cell number ([3]; culture time 24 h) was 0.49 ± 0.10 ×10^6, the Cell number ([3]; culture time 36 h) was 0.51 ± 0.05 ×10^6 and the Cell number ([3]; culture time 48 h) was 0.56 ± 0.08 ×10^6. The Cell number ([3]; culture time 72 h) was 0.67 ± 0.06* ×10^6.

For `CCCC(CCC)C(=O)O` [Valproic acid], the IC50 (MeWo melanoma cell line; Homo sapiens) was > 100 µM, the IC50 ([1]; Homo sapiens, MEL-JUSO) was 66.2 ± 6.39 µM and the IC50 (A2058 melanoma cell line; Homo sapiens) was > 100 µM.

With `CN(C)/N=N/c1[nH]cnc1C(N)=O` [Dacarbazine] the IC50 (MeWo melanoma cell line; Homo sapiens) was > 100 µM, the IC50 ([1]; Homo sapiens, MEL-JUSO) was 56.7 ± 7.46 µM and the IC50 (A2058 melanoma cell line; Homo sapiens) was > 100 µM.

Compound `COc1cccc2c1C(=O)c1c(O)c3c(c(O)c1C2=O)C[C@@](O)(C(C)=O)C[C@@H]3O[C@H]1C[C@H](N)[C@H](O)[C@H](C)O1` [Daunorubicin] has an IC50 (MeWo melanoma cell line; Homo sapiens) of 2.61 ± 0.51 µM, an IC50 ([1]; Homo sapiens, MEL-JUSO) of 1.44 ± 0.35 µM and an IC50 (A2058 melanoma cell line; Homo sapiens) of 2.4 ± 0.73 µM.

With `N.N.[Cl][Pt][Cl]` [Cisplatin] the IC50 (MeWo melanoma cell line) was 44.3 ± 5.43 µM, the IC50 [1] was 11.2 ± 1.77 µM and the IC50 (A2058 melanoma cell line) was > 100 µM.

In the case of `O=C(O[C@@H]1Cc2c(O)cc(O)cc2O[C@@H]1c1cc(O)c(O)c(O)c1)c1cc(O)c(O)c(O)c1` [EGCG, (−)-epigallocatechin-3-gallate, reference compound], the GR number [4] is reported as 77 ± 7 10^3 GR/cell, the Tumor vol. (A2058 melanoma) is reported as 894 ± 137 mm^3 and the CRC (corticosterone) is reported as 243 ± 31 ng/mL plasma. The ACTH (ACTH) was 215 ± 36 pg/mL plasma, the “deaths in the treated groups” value [5] was “did not cause deaths” and the “deaths in the tumor-bearing groups” value ([5]; 60 mg/kg i.v. every 48 h) was 45%.

With `COc1cc(/C=C/C(=O)CC(=O)/C=C/c2ccc(O)c(OC)c2)ccc1O` [Curc, curcumin, reference compound] the GR number [4] was 71 ± 12 10^3 GR/cell, the Tumor vol. (A2058 melanoma) was 606 ± 126* mm^3 and the CRC (corticosterone) was 161 ± 17 ng/mL plasma. The ACTH (ACTH) was 113 ± 25 pg/mL plasma and the “deaths in the treated groups” value [5] was “did not cause deaths”.

In the case of `COc1cc(C=Cc2ccc(OC3OC(C(=O)O)C(O)C(O)C3O)cc2)cc(OC)c1` [Pter-G, Pterostilbene 4′-O-D-glucuronide], the “decrease of ACTH production in AtT-20 cells by pterostilbene conjugates” value [2] is reported as “None”.

For `Cn1nnc2c(C(N)=O)ncn2c1=O` [Temozolomide], the IC50 (MeWo melanoma cell line; Homo sapiens) was > 100 µM, the IC50 ([1]; Homo sapiens, MEL-JUSO) was > 100 µM and the IC50 (A2058 melanoma cell line; Homo sapiens) was > 100 µM.
